From the supplement of paper PMC10307832 come the findings set out here.

One test relates to LCLC-103H. The experiment in a line: relative viability (nuclei count vs DMSO), 5 days (fraction); higher = more cells survive. Particulars: first compound 0.253 µM. Put shortly: (§1)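 Cells from lung cancer lines were seeded into 1536-well plates and, one day later, dosed by pin tool. Treatments were either a single drug or a fixed dose of an anchor drug with five library-drug doses (not always all listed) in √10 steps. After 5 days, nuclei were stained in a one-step fixation (final 0.05% Triton X-100, 1% formaldehyde, 1 ug/ml Hoechst) and counted on 4× images, and relative viability is the treated-to-vehicle nuclei ratio, as the median of duplicate plates.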
For `Oc1nc(-c2ccc(C(F)(F)F)cc2)nc2c1CSCC2` [XAV939] + CC(=O)c1c(C)c2cnc(Nc3ccc(N4CCNCC4)cn3)nc2n(C2CCCC2)c1=O [Palbociclib] (partner 0.5 µM), the relative viability came to 0.499.

As to `C=C1C(=O)O[C@@H](CCCCCCCC)[C@@H]1C(=O)O` [C-75] + CC(=O)c1c(C)c2cnc(Nc3ccc(N4CCNCC4)cn3)nc2n(C2CCCC2)c1=O [Palbociclib] (partner 0.5 µM), the relative viability is 0.428.

Staying with this test, now noted: first compound 0.8 µM.
Compound `Oc1nc(-c2ccc(C(F)(F)F)cc2)nc2c1CSCC2` [XAV939] + O=C(CCCCCCC(=O)Nc1ccccc1)NO [Vorinostat] (partner 1 µM) had a relative viability of 0.805.

In the case of `C=C1C(=O)O[C@@H](CCCCCCCC)[C@@H]1C(=O)O` [C-75] + Nc1nc2[nH]cc(CCc3ccc(C(=O)N[C@@H](CCC(=O)O)C(=O)O)cc3)c2c(=O)[nH]1 [Pemetrexed] (partner 0.2 µM), the relative viability came to 0.458.

The compound `Oc1nc(-c2ccc(C(F)(F)F)cc2)nc2c1CSCC2` [XAV939] + O=C(c1cc(Cc2n[nH]c(=O)c3ccccc23)ccc1F)N1CCN(C(=O)C2CC2)CC1 [Olaparib] (partner 8 µM) yielded a relative viability of 0.725.

`Oc1nc(-c2ccc(C(F)(F)F)cc2)nc2c1CSCC2` [XAV939] + CC(=O)c1c(C)c2cnc(Nc3ccc(N4CCNCC4)cn3)nc2n(C2CCCC2)c1=O [Palbociclib] (partner 0.5 µM) gave a relative viability of 0.514.

`C=C1C(=O)O[C@@H](CCCCCCCC)[C@@H]1C(=O)O` [C-75] + CC(=O)c1c(C)c2cnc(Nc3ccc(N4CCNCC4)cn3)nc2n(C2CCCC2)c1=O [Palbociclib] (partner 0.5 µM) displayed a relative viability of 0.499.

Still in this test, the particulars now being: first compound 2.53 µM.
Turning to `Oc1nc(-c2ccc(C(F)(F)F)cc2)nc2c1CSCC2` [XAV939] + O=C(CCCCCCC(=O)Nc1ccccc1)NO [Vorinostat] (partner 1 µM), the relative viability was 0.618.

Turning to `C=C1C(=O)O[C@@H](CCCCCCCC)[C@@H]1C(=O)O` [C-75] + Nc1nc2[nH]cc(CCc3ccc(C(=O)N[C@@H](CCC(=O)O)C(=O)O)cc3)c2c(=O)[nH]1 [Pemetrexed] (partner 0.2 µM), the relative viability turned out to be 0.326.

As for `Oc1nc(-c2ccc(C(F)(F)F)cc2)nc2c1CSCC2` [XAV939] + O=C(c1cc(Cc2n[nH]c(=O)c3ccccc23)ccc1F)N1CCN(C(=O)C2CC2)CC1 [Olaparib] (partner 8 µM), the relative viability was determined as 0.767.

`Oc1nc(-c2ccc(C(F)(F)F)cc2)nc2c1CSCC2` [XAV939] + CC(=O)c1c(C)c2cnc(Nc3ccc(N4CCNCC4)cn3)nc2n(C2CCCC2)c1=O [Palbociclib] (partner 0.5 µM): the relative viability is 0.449.

Consider `C=C1C(=O)O[C@@H](CCCCCCCC)[C@@H]1C(=O)O` [C-75] + CC(=O)c1c(C)c2cnc(Nc3ccc(N4CCNCC4)cn3)nc2n(C2CCCC2)c1=O [Palbociclib] (partner 0.5 µM), for which the relative viability came out at 0.353.

The test is the same for the next values; noted with them: first compound 8 µM.
As for `C=C1C(=O)O[C@@H](CCCCCCCC)[C@@H]1C(=O)O` [C-75] + Nc1nc2[nH]cc(CCc3ccc(C(=O)N[C@@H](CCC(=O)O)C(=O)O)cc3)c2c(=O)[nH]1 [Pemetrexed] (partner 0.2 µM), the relative viability was 0.433.

Take `C=C1C(=O)O[C@@H](CCCCCCCC)[C@@H]1C(=O)O` [C-75] + CC(=O)c1c(C)c2cnc(Nc3ccc(N4CCNCC4)cn3)nc2n(C2CCCC2)c1=O [Palbociclib] (partner 0.5 µM): the relative viability was 0.451.

The test system of a further test is LK-2. The description is as above. Conditions: first compound 0.08 µM. In a few lines:
as §1
`Oc1nc(-c2ccc(C(F)(F)F)cc2)nc2c1CSCC2` [XAV939] + O=C(CCCCCCC(=O)Nc1ccccc1)NO [Vorinostat] (partner 1 µM) displayed a relative viability of 0.371.

`C=C1C(=O)O[C@@H](CCCCCCCC)[C@@H]1C(=O)O` [C-75] + Nc1nc2[nH]cc(CCc3ccc(C(=O)N[C@@H](CCC(=O)O)C(=O)O)cc3)c2c(=O)[nH]1 [Pemetrexed] (partner 0.2 µM) returned a relative viability of 0.214.

Take `Oc1nc(-c2ccc(C(F)(F)F)cc2)nc2c1CSCC2` [XAV939] + O=C(c1cc(Cc2n[nH]c(=O)c3ccccc23)ccc1F)N1CCN(C(=O)C2CC2)CC1 [Olaparib] (partner 8 µM): the relative viability was found to be 0.607.

With `Oc1nc(-c2ccc(C(F)(F)F)cc2)nc2c1CSCC2` [XAV939] + CC(=O)c1c(C)c2cnc(Nc3ccc(N4CCNCC4)cn3)nc2n(C2CCCC2)c1=O [Palbociclib] (partner 0.5 µM), the relative viability came to 0.526.

`C=C1C(=O)O[C@@H](CCCCCCCC)[C@@H]1C(=O)O` [C-75] + CC(=O)c1c(C)c2cnc(Nc3ccc(N4CCNCC4)cn3)nc2n(C2CCCC2)c1=O [Palbociclib] (partner 0.5 µM) yielded a relative viability of 0.779.

The test is the same for the next values; noted with them: first compound 0.253 µM.
In the case of `Oc1nc(-c2ccc(C(F)(F)F)cc2)nc2c1CSCC2` [XAV939] + O=C(CCCCCCC(=O)Nc1ccccc1)NO [Vorinostat] (partner 1 µM), the relative viability amounted to 0.325.

The compound `C=C1C(=O)O[C@@H](CCCCCCCC)[C@@H]1C(=O)O` [C-75] + Nc1nc2[nH]cc(CCc3ccc(C(=O)N[C@@H](CCC(=O)O)C(=O)O)cc3)c2c(=O)[nH]1 [Pemetrexed] (partner 0.2 µM) returned a relative viability of 0.301.

Compound `Oc1nc(-c2ccc(C(F)(F)F)cc2)nc2c1CSCC2` [XAV939] + O=C(c1cc(Cc2n[nH]c(=O)c3ccccc23)ccc1F)N1CCN(C(=O)C2CC2)CC1 [Olaparib] (partner 8 µM) gave a relative viability of 0.669.

Regarding `Oc1nc(-c2ccc(C(F)(F)F)cc2)nc2c1CSCC2` [XAV939] + CC(=O)c1c(C)c2cnc(Nc3ccc(N4CCNCC4)cn3)nc2n(C2CCCC2)c1=O [Palbociclib] (partner 0.5 µM), the relative viability is 0.626.

For the compound `C=C1C(=O)O[C@@H](CCCCCCCC)[C@@H]1C(=O)O` [C-75] + CC(=O)c1c(C)c2cnc(Nc3ccc(N4CCNCC4)cn3)nc2n(C2CCCC2)c1=O [Palbociclib] (partner 0.5 µM), the relative viability worked out at 0.754.

The same test, now with this note: first compound 0.8 µM.
In turn, `Oc1nc(-c2ccc(C(F)(F)F)cc2)nc2c1CSCC2` [XAV939] + O=C(CCCCCCC(=O)Nc1ccccc1)NO [Vorinostat] (partner 1 µM) displayed a relative viability of 0.251.

Compound `C=C1C(=O)O[C@@H](CCCCCCCC)[C@@H]1C(=O)O` [C-75] + Nc1nc2[nH]cc(CCc3ccc(C(=O)N[C@@H](CCC(=O)O)C(=O)O)cc3)c2c(=O)[nH]1 [Pemetrexed] (partner 0.2 µM) returned a relative viability of 0.215.

As to `Oc1nc(-c2ccc(C(F)(F)F)cc2)nc2c1CSCC2` [XAV939] + O=C(c1cc(Cc2n[nH]c(=O)c3ccccc23)ccc1F)N1CCN(C(=O)C2CC2)CC1 [Olaparib] (partner 8 µM), the relative viability amounted to 0.84.

On to `Oc1nc(-c2ccc(C(F)(F)F)cc2)nc2c1CSCC2` [XAV939] + CC(=O)c1c(C)c2cnc(Nc3ccc(N4CCNCC4)cn3)nc2n(C2CCCC2)c1=O [Palbociclib] (partner 0.5 µM), for which the relative viability amounted to 0.609.

Turning to `C=C1C(=O)O[C@@H](CCCCCCCC)[C@@H]1C(=O)O` [C-75] + CC(=O)c1c(C)c2cnc(Nc3ccc(N4CCNCC4)cn3)nc2n(C2CCCC2)c1=O [Palbociclib] (partner 0.5 µM), the relative viability stood at 0.723.

Still in this test, the particulars now being: first compound 2.53 µM.
The compound `Oc1nc(-c2ccc(C(F)(F)F)cc2)nc2c1CSCC2` [XAV939] + O=C(CCCCCCC(=O)Nc1ccccc1)NO [Vorinostat] (partner 1 µM) displayed a relative viability of 0.24.

On to `C=C1C(=O)O[C@@H](CCCCCCCC)[C@@H]1C(=O)O` [C-75] + Nc1nc2[nH]cc(CCc3ccc(C(=O)N[C@@H](CCC(=O)O)C(=O)O)cc3)c2c(=O)[nH]1 [Pemetrexed] (partner 0.2 µM), for which the relative viability is 0.2.
